According to paper PMC10734772 (Turkish Journal of Chemistry, 2021):

Legend:
Assay type in all cases: cell-based
K562 = test: MTT assay, K562 cells; settings: Homo sapiens, 24 h, MTT, read-out: Viability rate
Nalm-6 = test: MTT assay, Nalm-6 cells; settings: Homo sapiens, 24 h
Method: K562, Jurkat and Molt-4 cell lines were seeded as 4x10^5/ml, Reh and Nalm-6 cell lines were seeded 5x10^5/ml, Hek293T cell line was seed as 2x10^5/ml.
MTT assay is a 3-day test. On the first day, cell count was performed in Bio Rad TC-20 device with the help of trypan blue, each cell line was prepared by diluting to the specified concentrations and seeded in a 96-well plate as 100μL to each well and incubated for 1 day.
On the second day, stock solutions were subsequently diluted to various concentrations (0.3–200 μM) with related medium prior to experiments. Specified concentrations of the compounds were seeded in a 96-well plate as 100μL to each well and incubated for 24 h.
After incubation (on the third day), to precipitate leukemia cells, the cell plate was centrifuged at 1500 rpm for 5 min. […] The 50 μl of supernatant was discarded from each well and 100 μl of DMSO was added to dissolve the formazan. Plates were shaken for 45 min to dissolve the dye. Then the optical density of each well was measured by using Thermo VarioSkan Flush Multimode Reader Quantum ST5-1100 at 570 nm wavelength.
Subsequently, viability rate of the cells at each concentration, as percentage, was determined by following formula (1):
Viability rate (%)=100-[(OD(control)-OD(sample))/OD(control)×100].OD=Optical Density
The IC50 values were calculated by using GraphPad Prism. All the data presented as the mean of 6 replicates. […] Statistical analysis was performed using dose-response inhibition, log(inhibitor) vs response-variable slope, least squares (ordinary) fit.

Molt-4 = test: MTT assay, Molt-4 cells; settings: Homo sapiens, MOLT-4, 24 h, read-out: Viability rate
Reh = test: MTT assay, Reh cells; settings: Homo sapiens, 24 h, read-out: Viability rate
Jurkat = test: MTT assay, Jurkat cells; settings: Homo sapiens, 24 h, read-out: Viability rate
[1] = MTT assay, Hek293T non-leukemic control cells; settings: human, read-out: Viability rate
[2] = system: K562, Nalm-6, Molt-4, Reh, Jurkat, Hek293T cell lines; test: MTT assay, overall judgement over all cell lines; settings: overall judgement in words; for 6 and 10: on all cell lines, except Reh
In short: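 MTT viability assay run across a range of compound concentrations in leukemic lines, BCR-ABL positive K562 and BCR-ABL negative Nalm-6, Molt-4, Reh, Jurkat, plus non-leukemic Hek293T. Viability rate calculated per concentration.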

Cc1ccnc(Nc2cc(NC(=O)c3ccc(CN4CCOCC4)cc3)ccc2C)c1 [Compound 9, N-(4-Methyl-3-((4-methylpyridin-2-yl)amino)phenyl)-4-(morhpolinomethyl)benzamide]
viability at 0.3 µM (K562; K562, 0.3 μM): 79.9 ± 0.09% | viability at 0.5 µM (K562; K562, 0.5 μM): 78.5 ± 0.03% | viability at 1 µM (K562; K562, 1 μM): 77.3 ± 0.08% | viability at 3 µM (K562; K562, 3 μM): 77 ± 0.04% | viability at 5 µM (K562; K562, 5 μM): 75.4 ± 0.09% | viability at 10 µM (K562; K562, 10 μM): 73.2 ± 0.08% | viability at 15 µM (K562; K562, 15 μM): 72 ± 0.06% | viability at 20 µM (K562; K562, 20 μM): 69.1 ± 0.03% | viability at 30 µM (K562; K562, 30 μM): 69.7 ± 0.07% | viability at 50 µM (K562; K562, 50 μM): 61.2 ± 0.08% | viability at 70 µM (K562; K562, 70 μM): 58.1 ± 0.1% | viability at 100 µM (K562; K562, 100 μM): 51.3 ± 0.06% | viability at 150 µM (K562; K562, 150 μM): 49.7 ± 0.05% | viability at 200 µM (K562; K562, 200 μM): 45% | viability at 0.3 µM (Nalm-6; Nalm-6, 0.3 μM, MTT, read-out: Viability rate): 86.4 ± 0.05% | viability at 0.5 µM (Nalm-6; Nalm-6, 0.5 μM, MTT, read-out: Viability rate): 85.2 ± 0.05% | viability at 1 µM (Nalm-6; Nalm-6, 1 μM, MTT, read-out: Viability rate): 72.7 ± 0.04% | viability at 3 µM (Nalm-6; Nalm-6, 3 μM, MTT, read-out: Viability rate): 64.5 ± 0.02% | viability at 5 µM (Nalm-6; Nalm-6, 5 μM, MTT, read-out: Viability rate): 62.6 ± 0.04% | viability at 10 µM (Nalm-6; Nalm-6, 10 μM, MTT, read-out: Viability rate): 53.2 ± 0.03% | viability at 15 µM (Nalm-6; Nalm-6, 15 μM, MTT, read-out: Viability rate): 50.1 ± 0.03% | viability at 20 µM (Nalm-6; Nalm-6, 20 μM, MTT, read-out: Viability rate): 49.2 ± 0.01% | viability at 30 µM (Nalm-6; Nalm-6, 30 μM, MTT, read-out: Viability rate): 48.1 ± 0.01% | viability at 50 µM (Nalm-6; Nalm-6, 50 μM, MTT, read-out: Viability rate): 43.9 ± 0.01% | viability at 70 µM (Nalm-6; Nalm-6, 70 μM, MTT, read-out: Viability rate): 42.8 ± 0.01% | viability at 100 µM (Nalm-6; Nalm-6, 100 μM, MTT, read-out: Viability rate): 42.5 ± 0.01% | viability at 150 µM (Nalm-6; Nalm-6, 150 μM, MTT, read-out: Viability rate): 42.5 ± 0.01% | viability at 200 µM (Nalm-6; Nalm-6, 200 μM, MTT, read-out: Viability rate): 39.2% | IC50 (Nalm-6; Nalm-6, MTT, range 0.3–200 μM, six replicates): 1.64 µM | viability at 0.3 µM (Molt-4; Molt-4, 0.3 μM): 93.2 ± 0.17% | viability at 0.5 µM (Molt-4; Molt-4, 0.5 μM): 87.8 ± 0.05% | viability at 1 µM (Molt-4; Molt-4, 1 μM): 78.4 ± 0.11% | viability at 3 µM (Molt-4; Molt-4, 3 μM): 72.7 ± 0.04% | viability at 5 µM (Molt-4; Molt-4, 5 μM): 71.7 ± 0.07% | viability at 10 µM (Molt-4; Molt-4, 10 μM): 69.3 ± 0.04% | viability at 15 µM (Molt-4; Molt-4, 15 μM): 68.9 ± 0.05% | viability at 20 µM (Molt-4; Molt-4, 20 μM): 63.5 ± 0.04% | viability at 30 µM (Molt-4; Molt-4, 30 μM): 62 ± 0.03% | viability at 50 µM (Molt-4; Molt-4, 50 μM): 61.5 ± 0.07% | viability at 70 µM (Molt-4; Molt-4, 70 μM): 59.8 ± 0.05% | viability at 100 µM (Molt-4; Molt-4, 100 μM): 59.5 ± 0.08% | viability at 150 µM (Molt-4; Molt-4, 150 μM): 58.6 ± 0.06% | viability at 200 µM (Molt-4; Molt-4, 200 μM): 54.7 ± 0.03% | viability at 0.3 µM (Reh; 0.3 μM): 103.8 ± 0.01% | viability at 0.5 µM (Reh; 0.5 μM): 101.3 ± 0.03% | viability at 1 µM (Reh; 1 μM): 100.4 ± 0.01% | viability at 3 µM (Reh; 3 μM): 100.5 ± 0.02% | viability at 5 µM (Reh; 5 μM): 101.8 ± 0.03% | viability at 10 µM (Reh; 10 μM): 103.4 ± 0.02% | viability at 15 µM (Reh; 15 μM): 100.2 ± 0.02% | viability at 20 µM (Reh; 20 μM): 99 ± 0.02% | viability at 30 µM (Reh; 30 μM): 91.4 ± 0.01% | viability at 50 µM (Reh; 50 μM): 88.2 ± 0.02% | viability at 70 µM (Reh; 70 μM): 84.7 ± 0.03% | viability at 100 µM (Reh; 100 μM): 87.1 ± 0.02% | viability at 150 µM (Reh; 150 μM): 85 ± 0.01% | viability at 200 µM (Reh; 200 μM): 82 ± 0.02% | viability at 0.3 µM (Jurkat; 0.3 μM): 82.3 ± 0.05% | viability at 0.5 µM (Jurkat; 0.5 μM): 82 ± 0.06% | viability at 1 µM (Jurkat; 1 μM): 82 ± 0.05% | viability at 3 µM (Jurkat; 3 μM): 81.7 ± 0.05% | viability at 5 µM (Jurkat; 5 μM): 83 ± 0.04% | viability at 10 µM (Jurkat; 10 μM): 81.9 ± 0.02% | viability at 15 µM (Jurkat; 15 μM): 80.4 ± 0.02% | viability at 20 µM (Jurkat; 20 μM): 79 ± 0.04% | viability at 30 µM (Jurkat; 30 μM): 72.9 ± 0.07% | viability at 50 µM (Jurkat; 50 μM): 68.1 ± 0.01% | viability at 70 µM (Jurkat; 70 μM): 65.1 ± 0.02% | viability at 100 µM (Jurkat; 100 μM): 49.6 ± 0.07% | viability at 150 µM (Jurkat; 150 μM): 46.9 ± 0.05% | viability at 200 µM (Jurkat; 200 μM): 39.1 ± 0.04% | viability at 24 h, 0.3 µM ([1]; Hek293T cells (non-leukemic control cell line), 0.3 μM): 91.7 ± 0.07% | viability at 24 h, 0.5 µM ([1]; Hek293T cells (non-leukemic control cell line), 0.5 μM): 89.8 ± 0.07% | viability at 24 h, 3 µM ([1]; Hek293T cells (non-leukemic control cell line), 3 μM): 87.4 ± 0.07% | viability at 24 h, 5 µM ([1]; Hek293T cells (non-leukemic control cell line), 5 μM): 86.2 ± 0.03% | viability at 24 h, 10 µM ([1]; Hek293T cells (non-leukemic control cell line), 10 μM): 79.3 ± 0.05% | viability at 24 h, 15 µM ([1]; Hek293T cells (non-leukemic control cell line), 15 μM): 78.3 ± 0.03% | viability at 24 h, 20 µM ([1]; Hek293T cells (non-leukemic control cell line), 20 μM): 76.5 ± 0.05% | viability at 24 h, 30 µM ([1]; Hek293T cells (non-leukemic control cell line), 30 μM): 68.9 ± 0.03% | viability at 24 h, 50 µM ([1]; Hek293T cells (non-leukemic control cell line), 50 μM): 62.2 ± 0.02% | viability at 24 h, 70 µM ([1]; Hek293T cells (non-leukemic control cell line), 70 μM): 56.2 ± 0.04% | viability at 24 h, 100 µM ([1]; Hek293T cells (non-leukemic control cell line), 100 μM): 54.8 ± 0.02% | viability at 24 h, 150 µM ([1]; Hek293T cells (non-leukemic control cell line), 150 μM): 46.9 ± 0.02% | viability at 24 h, 200 µM ([1]; Hek293T cells (non-leukemic control cell line), 200 μM): 42.8 ± 0.02% | viability at 24 h, 1 µM ([1]; Hek293T cells, 1 μM): 89.5 ± 0.05% | anticancer activity according to MTT assay results [2]: relatively lower activity
